From patent US7842324B2 (Senomyx, Inc., priority 2005, dated 2010)
pEC50: −log10 of the molar value.

biological target: T1, hT1R2/hT1R3 sweet receptor expressed in HEK293 cell line (Homo sapiens, UniProt Q7RTX0+Q8TE23); experiment: In vitro hT1R2/hT1R3-HEK293 taste receptor activation assay (FLIPR); assay type: cell-based; conditions: Table A; read-out: SWEET EC50
T1 construct: expressed in transfected cells; host or cells: HEK293 derivative stably expressing Gα15 and hT1R2/hT1R3, clone S-9
T1 sequence (Q8TE23 20-839): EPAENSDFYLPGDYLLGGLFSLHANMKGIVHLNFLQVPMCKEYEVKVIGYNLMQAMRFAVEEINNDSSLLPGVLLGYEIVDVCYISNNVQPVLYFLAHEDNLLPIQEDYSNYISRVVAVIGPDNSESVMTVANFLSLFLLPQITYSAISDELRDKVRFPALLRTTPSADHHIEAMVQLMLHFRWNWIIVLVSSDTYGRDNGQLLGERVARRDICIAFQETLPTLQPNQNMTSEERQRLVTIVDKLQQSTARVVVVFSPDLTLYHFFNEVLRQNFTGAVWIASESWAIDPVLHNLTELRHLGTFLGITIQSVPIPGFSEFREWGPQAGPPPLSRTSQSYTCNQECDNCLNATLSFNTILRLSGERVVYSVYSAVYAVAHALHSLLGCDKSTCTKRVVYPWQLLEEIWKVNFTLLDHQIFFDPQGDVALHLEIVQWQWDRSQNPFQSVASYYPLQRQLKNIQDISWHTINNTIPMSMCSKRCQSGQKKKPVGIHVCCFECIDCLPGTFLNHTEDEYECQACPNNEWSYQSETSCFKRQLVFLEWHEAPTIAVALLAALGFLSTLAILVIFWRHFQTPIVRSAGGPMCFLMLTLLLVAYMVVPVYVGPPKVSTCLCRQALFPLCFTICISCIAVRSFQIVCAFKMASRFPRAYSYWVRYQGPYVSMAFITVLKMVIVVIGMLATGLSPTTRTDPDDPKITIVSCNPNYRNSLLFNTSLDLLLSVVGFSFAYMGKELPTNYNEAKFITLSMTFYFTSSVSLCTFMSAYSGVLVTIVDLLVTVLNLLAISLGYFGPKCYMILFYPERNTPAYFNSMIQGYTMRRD
T1 sequence (Q7RTX0 21-852): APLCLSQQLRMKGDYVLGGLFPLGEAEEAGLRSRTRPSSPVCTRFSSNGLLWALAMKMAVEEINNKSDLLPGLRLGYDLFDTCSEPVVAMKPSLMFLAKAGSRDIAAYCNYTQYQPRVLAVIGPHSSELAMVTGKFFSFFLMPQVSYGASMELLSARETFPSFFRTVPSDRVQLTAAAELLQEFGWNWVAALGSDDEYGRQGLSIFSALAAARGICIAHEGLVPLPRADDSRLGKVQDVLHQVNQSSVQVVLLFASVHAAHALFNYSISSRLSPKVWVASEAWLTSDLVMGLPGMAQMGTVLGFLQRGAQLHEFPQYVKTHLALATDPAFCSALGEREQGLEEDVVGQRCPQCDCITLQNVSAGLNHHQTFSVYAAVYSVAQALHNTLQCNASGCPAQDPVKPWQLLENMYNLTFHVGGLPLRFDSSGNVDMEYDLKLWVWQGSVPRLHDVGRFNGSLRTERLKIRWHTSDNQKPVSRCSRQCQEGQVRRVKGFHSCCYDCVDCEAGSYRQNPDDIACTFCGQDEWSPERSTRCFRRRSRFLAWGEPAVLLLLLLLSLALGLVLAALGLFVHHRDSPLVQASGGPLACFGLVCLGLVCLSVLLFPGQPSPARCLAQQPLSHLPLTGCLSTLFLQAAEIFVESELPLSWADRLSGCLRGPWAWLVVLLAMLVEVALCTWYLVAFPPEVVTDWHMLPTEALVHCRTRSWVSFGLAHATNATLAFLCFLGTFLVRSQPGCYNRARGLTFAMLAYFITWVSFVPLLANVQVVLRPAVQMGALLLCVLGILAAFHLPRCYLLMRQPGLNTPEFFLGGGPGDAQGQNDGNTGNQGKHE
Protocol: An HEK293 cell line derivative (Chandrashekar et al., Cell (2000) 100:703-711) that stably expresses Gα15 and hT1R2/hT1R3 (Li et al., Proc Natl Acad Sci USA (2002) 99:4692-4696), see also PCT Publication No. WO 03/001876 A2) was used to identify compounds with sweet taste enhancing properties.
Compounds covered in this document were initially selected based on their activity on the hT1R2/hT1R3-HEK293-Gα15 cell line (Li et al. vide supra). Activity was determined using an automated fluorometric imaging assay on a FLIPR instrument ([…], Molecular Devices, Sunnyvale, Calif.) (designated FLIPR assay). Cells from one clone (designated S-9 cells) were seeded into 384-well plates (at approximately 50,000 cells per well) in a medium containing DMEM Low Glucose (Invitrogen, Carlsbad, Calif.), 10% dialyzed fetal bovine serum (Invitrogen, Carlsbad, Calif.), 100 Units/ml Penicillin G, and 100 μg/ml Streptomycin (Invitrogen, Carlsbad, Calif.) (Li et al. vide supra) see also PCT Publication No. WO 03/001876 A2). S-9 cells were grown for 24 hours at 37° C. S-9 cells were then loaded with the calcium dye Fluo-3AM (Molecular Probes, Eugene, Oreg.), 4 μM in a phosphate buffered saline (D-PBS) (Invitrogen, Carlsbad, Calif.), for 1 hour at room temperature. After replacement with 25 μl D-PBS, stimulation was performed in the FLIPR instrument and at room temperature by the addition of 25 μl D-PBS supplemented with different stimuli at concentrations corresponding to twice the desired final level. Receptor activity was quantified by determining the maximal fluorescence increases (using a 480 nm excitation and 535 nm emission) after normalization to basal fluorescence intensity measured before stimulation.
For dose-responses analysis, stimuli were presented in duplicates at 10 different concentrations ranging from 60 nM to 30 μM. Activities were normalized to the response obtained with 400 mM D-fructose, a concentration that elicits maximum receptor response. EC50s were determined using a non-linear regression algorithm (using a Senomyx, Inc. software), where the Hill slope, bottom asymptotes and top asymptotes were allow to vary. Identical results were obtained when analyzing the dose-response data using commercially available software for non-linear regression analysis such as GraphPad PRISM (San Diego, Calif.).

pEC50 | SMILES
5.27 | CC(C)CNC(=O)C(C)(C)c1ccc(-c2ccncn2)cc1 [Compound A33]
5.00 | CC(C)CNC(=O)C(C)(C)c1ccc(-n2ccnc2)cc1 [Compound A34]
4.94 | CC(C)CNC(=O)C(C)(C)c1ccc(-c2cnco2)cc1 [Compound A35]
5.89 | CC(C)CNC(=O)C(C)(C)c1ccc(-c2ccccc2)cc1 [Compound A36]
6.12 | CC(C)CNC(=O)C(C)(C)c1ccc(-c2cccc(C=O)c2)cc1 [Compound A37]
5.83 | CC(C)CNC(=O)C(C)(C)c1ccc(-c2cccc(S(C)(=O)=O)c2)cc1 [Compound A38]
5.81 | CC(C)CNC(=O)Cc1ccc(-c2ccccc2)cc1 [Compound A39]
7.52 | CCC(CC)NC(=O)C(C)(C)c1ccc(-c2cncc(C#N)n2)cc1 [Compound A40]
7.30 | CCC(C)CNC(=O)C(C)(C)c1ccc(-c2cncc(C#N)n2)cc1 (centres unmarked) [Compound A41]
7.00 | CC(NC(=O)C(C)(C)c1ccc(-c2cncc(C#N)n2)cc1)c1ccco1 (centres unmarked) [Compound A42]
6.89 | CC(C)(C(=O)NC1CCCC1)c1ccc(-c2cncc(C#N)n2)cc1 [Compound A43]
6.68 | CC(C)[C@@H](C)NC(=O)C(C)(C)c1ccc(-c2cncc(C#N)n2)cc1 [Compound A44]
6.57 | CC(C)(C(=O)NCC1CC1)c1ccc(-c2cncc(C#N)n2)cc1 [Compound A45]
6.51 | CC(C)[C@H](C)NC(=O)C(C)(C)c1ccc(-c2cncc(C#N)n2)cc1 [Compound A46]
6.49 | CC(C)(C(=O)NC1CC1)c1ccc(-c2cncc(C#N)n2)cc1 [Compound A47]
6.49 | CC(C)CNC(=O)C(C)(C)c1ccc(-c2cocc2C#N)cc1 [Compound A48]
6.43 | CC(C)(C(=O)NC1CCC1)c1ccc(-c2cncc(C#N)n2)cc1 [Compound A49]
6.43 | CC[C@@H](C)NC(=O)C(C)(C)c1ccc(-c2cncc(C#N)n2)cc1 [Compound A50]
6.39 | CC(C)(C(=O)NC1CCC1)c1ccc(-c2cncc(C#N)c2)cc1 [Compound A51]
6.33 | CCCNC(=O)C(C)(C)c1ccc(-c2cncc(C#N)n2)cc1 [Compound A52]
6.23 | CC(C)(C(=O)NCc1ccoc1)c1ccc(-c2cncc(C#N)n2)cc1 [Compound A54]
6.19 | CC(C)NC(=O)C(C)(C)c1ccc(-c2cncc(C#N)n2)cc1 [Compound A55]
6.11 | CC(C)CNC(=O)C(C)(C)c1ccc(-c2cccnc2)cc1 [Compound A56]
6.04 | COCc1cccc(-c2ccc(C(C)(C)C(=O)NC(C)C)cc2)c1 [Compound A57]
5.98 | CC[C@@H](C)NC(=O)C(C)(C)c1ccc(-c2cncc(COC)c2)cc1 [Compound A58]
5.98 | Cc1cscc1-c1ccc(C(C)(C)C(=O)NCC(C)C)cn1 [Compound A59]

pEC50 | SMILES
5.96 | CC[C@H](CO)NC(=O)C(C)(C)c1ccc(-c2ccccc2)cc1 [Compound A60]
5.93 | CC(C)(C(=O)NCC(O)c1ccccc1)c1ccc(-c2cncc(C#N)c2)cc1 (centres unmarked) [Compound A61]
5.91 | CCC(COC)NC(=O)C(C)(C)c1ccc(-c2cncc(C#N)c2)cc1 (centres unmarked) [Compound A62]
5.89 | CC(C)CNC(=O)C(C)(C)c1ccc(-c2ccc(C#N)o2)cc1 [Compound A63]
5.89 | CC[C@H](C)NC(=O)C(C)(C)c1ccc(-c2cncc(COC)c2)cc1 [Compound A64]
5.88 | CC(C)(C(=O)NCC(O)c1ccco1)c1ccc(-c2cncc(C#N)n2)cc1 (centres unmarked) [Compound A65]
5.86 | CC(C)CNC(=O)C(C)(C)c1ccc(-c2coc(C(=O)O)c2)cc1 [Compound A66]
5.80 | CCOc1cncc(-c2ccc(C(C)(C)C(=O)NCC(C)C)cc2)c1 [Compound A68]
5.78 | CCC[C@@H](CO)NC(=O)C(C)(C)c1ccc(-c2cncc(C#N)c2)cc1 [Compound A69]
6.29 | CCC(C)CNC(=O)C(C)(C)c1ccc(-c2cncc(COC)c2)cc1 (centres unmarked) [Compound A70]
6.12 | CC(C)CNC(=O)C(C)(C)c1ccc(-c2cocc2/C=N/O)cc1 [Compound A71]
6.74 | CC(C)(C(=O)CCc1ccco1)c1ccc(-c2cncc(C#N)c2)cc1 [Compound A72]
6.27 | COC(=O)c1cncc(-c2ccc(C(C)(C)C(=O)NCC(C)C)cc2)c1 [Compound A73]
6.17 | CC[C@@H](CO)NC(=O)C(C)(C)c1ccc(-c2cncc(C#N)c2)cc1 [Compound A75]
6.02 | COc1cc(C(C)(C)C(=O)NCC(C)C)ccc1-c1ccccc1 [Compound A76]
5.90 | CCC(CO)NC(=O)C(C)(C)c1ccc(-c2ccoc2)cc1 (centres unmarked) [Compound A77]
6.17 | CCCNC(=O)C(C)(C)c1ccc(-c2cccc(COC)c2)cc1 [Compound A78]
6.17 | CC(C)CNC(=O)C(C)(C)c1ccc(-c2cccc3c2COCOC3)cc1 [Compound A79]
6.17 | CC(C)CNC(=O)C(C)(C)c1ccc(-c2cccc(C#N)c2CO)cc1 [Compound A80]
6.17 | CC(C)CNC(=O)C(C)(C)c1ccc(-c2cccc(C#N)n2)cc1 [Compound A81]
7.52 | CC[C@H](C)CNC(=O)C(C)(C)c1ccc(-c2cncc(C#N)n2)cc1 [Compound A82]
6.96 | CCC(C)CNC(=O)C(C)(C)c1ccc(-c2cncc(C#N)c2)cc1 (centres unmarked) [Compound A83]
6.96 | CC(C)(C(=O)NCC1CC1)c1ccc(-c2cncc(C#N)c2)cc1 [Compound A84]
6.82 | CC[C@@H](C)NC(=O)C(C)(C)c1ccc(-c2cncc(C#N)c2)cc1 [Compound A85]
6.74 | CC(C)(C(=O)NC1CCCCC1)c1ccc(-c2cncc(C#N)c2)cc1 [Compound A86]

SMILES | pEC50
CC[C@@H](C)NC(=O)C(C)(C)c1ccc(-c2cccc(COC)c2)cc1 [Compound A53] | 6.26
CC(C)CNC(=O)C(C)(C)c1ccc(-c2ccccc2)c(O)c1 [Compound A67] | 5.85
